Measured values: ChEMBL document CHEMBL5620379, “Discovery, SAR and mechanistic studies of quinazolinone-based acetamide derivatives in experimental visceral leishmaniasis” (Eur J Med Chem, 2023)
pIC50: −log10 of the molar value. Calls of active or inactive are those of the source. The calls are words filed in the database; no cut-off is given here.

Legend:
Leishmania donovani [1] = assay: Induction of autophagy in Leishmania donovani promastigotes assessed as fold increase in Sir2 transcript level at 25 uM measured after 24 hrs by RT-PCR analysis; assay type: functional
J774 [2] = assay: Immunostimulatory activity in mouse J774 macrophage infected with Leishmania donovani promastigotes assessed as fold increase in iNOS mRNA expression at 25 uM measured after 48 hrs in presence of nitric oxide by spectrophotometer analysis; assay type: functional
Leishmania donovani [3] = assay: Induction of cell cycle arrest in Leishmania donovani promastigotes assessed as accumulation of cells at G2/M phase at 25 uM measured after 24 hrs by PI staining based flow cytometry analysis (reference value: 35.7%); assay type: functional
[4] = Stability of the compound in Tris-buffer at 10 ug/ml at pH 7.4 measured upto 120 min by HPLC analysis; assay type: physicochemical; settings: at 10 µg/mL, read-out: Stability
[5] = Stability of the compound in stimulated intestinal fluid at 10 ug/ml at pH 6.8 measured after 120 min by HPLC analysis; assay type: ADME; settings: simulated intestinal fluid, at 10 µg/mL, read-out: Stability
Leishmania donovani [6] = assay: Induction of cell cycle arrest in Leishmania donovani promastigotes assessed as accumulation of cells at G2/M phase at 25 uM measured after 4 hrs by PI staining based flow cytometry analysis (reference value: 35.7%); assay type: functional
J774 [7] = assay: Cytotoxicity against mouse J774 macrophage incubated for 72 hrs by MTT assay; assay type: functional
Splenocyte = assay: Immunostimulatory activity in mouse splenocyte assessed as fold increase in IL-12 synthesis at 10 to 40 mg/kg measured after 1 week by RT-PCR analysis; assay type: functional; settings: dose 10-40 mg/kg; time 1 weeks
Leishmania donovani [8] = assay: Induction of cell cycle arrest in Leishmania donovani promastigotes assessed as accumulation of cells at S phase at 25 uM measured after 12 hrs by PI staining based flow cytometry analysis (reference value: 28.6%); assay type: functional
Leishmania donovani [9] = assay: Induction of cell cycle arrest in Leishmania donovani promastigotes assessed as accumulation of cells at S phase at 25 uM measured after 24 hrs by PI staining based flow cytometry analysis (reference value: 28.6%); assay type: functional
Leishmania donovani [10] = assay: Induction of cell cycle arrest in Leishmania donovani promastigotes assessed as accumulation of cells at S phase at 25 uM measured after 4 hrs by PI staining based flow cytometry analysis (reference value: 28.6%); assay type: functional
J774 [11] = assay: Downregulation of CREB enrichment in mouse J774 macrophage infected with Leishmania donovani at 25 uM measured after 4 hrs by ChIP assay; assay type: functional, cell-based
Leishmania donovani [12] = assay: Induction of autophagy in Leishmania donovani promastigotes assessed as fold induction of ATG8 gene at 25 uM measured after 24 hrs by RT-PCR analysis; assay type: functional
J774 [13] = assay: Immunostimulatory activity in mouse J774 macrophage infected with Leishmania donovani assessed as decrease in IL-10 level at 25 uM measured after 24 hrs by RT-PCR analysis relative to control; assay type: functional; parameters: scale not given: the % may be the effect or the level left
Leishmania donovani [14] = assay: Antileishmanial activity against Leishmania donovani amastigotes infected in J774 macrophage assessed as inhibition of parasite growth at 25 uM incubated for 48 hrs by luciferase assay relative to control; assay type: functional; parameters: scale not given: the % may be the effect or the level left
Leishmania donovani [15] = assay: Antileishmanial activity against amastigote form of Leishmania donovani infected in BALB/c mouse assessed as inhibition of parasite growth in liver at 40 mg/kg, po measured after 1 week post treatment by geimsa staining based analysis relative to control; assay type: functional; parameters: scale not given: the % may be the effect or the level left; settings: time 1 weeks
Leishmania donovani [16] = assay: Antileishmanial activity against Leishmania donovani promastigotes at 25 uM measured after 12 hrs by luciferase assay relative to control; assay type: functional
Leishmania donovani [17] = assay: Induction of cell cycle arrest in Leishmania donovani promastigotes assessed as accumulation of cells at S phase at 25 uM measured after 8 hrs by PI staining based flow cytometry analysis (reference value: 28.6%); assay type: functional
[18] = Toxicity in golden hamster infected with Leishmania donovani assessed as reduction in serum ALT level at 40 mg/kg ,po and measured after 28 days post infection (reference value: 81.58 IU/L); assay type: organism-based, Mesocricetus auratus; settings: in vivo, 672 h, time 28 day
Leishmania donovani [19] = assay: Antileishmanial activity against Leishmania donovani promastigotes measured after 48 hrs by MTT assay; assay type: functional, organism-based
J774 [20] = assay: Downregulation of Akt phosphorylation in mouse J774 macrophage infected with Leishmania donovani at 25 uM measured after 4 to 8 hrs by immunoblot analysis; assay type: functional, cell-based; settings: time 4-8 hrs
J774 [21] = assay: Cytotoxicity against mouse J774 cells at 25 uM incubated for 72 hrs by MTT assay relative to control; assay type: toxicity, cell-based; settings: j774, 72 h
Leishmania donovani [22] = assay: Induction of cell cycle arrest in Leishmania donovani promastigotes assessed as accumulation of cells at G1 phase at 25 uM measured after 4 hrs by PI staining based flow cytometry analysis (reference value: 35.7%); assay type: functional
Leishmania donovani [23] = assay: Induction of cell cycle arrest in Leishmania donovani promastigotes assessed as accumulation of cells at G1 phase at 25 uM measured after 24 hrs by PI staining based flow cytometry analysis (reference value: 35.7%); assay type: functional
Leishmania donovani [24] = assay: Induction of autophagy in Leishmania donovani promastigotes assessed as appearance of lipid droplets in cytoplasm at 25 uM measured after 24 hrs by Nile red staining based fluorescence microscopic analysis; assay type: functional, organism-based
Leishmania donovani [25] = assay: Induction of apoptosis in Leishmania donovani promastigotes assessed as appearance of intense swelling in mitochondria at 25 uM by transmission electron microscopy analysis; assay type: functional, organism-based

## Cn1c(-c2ccc(OCC(=O)Nc3ccccn3)cc2)nc2ccccc2c1=O
Leishmania donovani [1]
  fold change (FC): 4.95
J774 [2]
  fold change (FC): 4.87
Leishmania donovani [3]
  Activity: 13.9%
[4]
  remaining at 2 h, 10 ug/ml: 95.5%
[5]
  remaining at 2 h, 10 ug/ml: 97.5%
Leishmania donovani [6]
  Activity: 30.6%
J774 [7]
  CC50: 65 µM
Splenocyte
  fold change (FC): 4.96
Leishmania donovani [8]
  Activity: 15.5%
Leishmania donovani [9]
  Activity: 13.9%
Leishmania donovani [10]
  Activity: 25.6%
J774 [11]
  Activity: Active
Leishmania donovani [12]
  fold change (FC): 8.92
J774 [13]
  Activity: 72.23%
Leishmania donovani [14]
  Activity: 82.68%
Leishmania donovani [15]
  Activity: 85.4%
Leishmania donovani [16]
  Activity: 11.8%
Leishmania donovani [17]
  Activity: 20.7%
[18]
  Activity: 101.88 IU/L
Leishmania donovani [19]
  pIC50: 5.47
J774 [20]
  Activity: Active
J774 [21]
  Activity: 79.57%
Leishmania donovani [22]
  Activity: 43.8%
Leishmania donovani [23]
  Activity: 72.2%
Leishmania donovani [24]
  Activity: Active
Leishmania donovani [25]
  Activity: Active
